The source of these data is paper PMC11494455 (Nature chemical biology, 2022).

This assay deals with THP4.1 biosensor (Salmonella typhimurium, UniProt Q8ZR43). The experiment in a line: Dose response and ligand response of the THP4.1 biosensor. Type of assay: cell-based. The conditions noted are these: pThpR reporter.
Chain of THP4.1 biosensor (Q8ZR43 whole entry): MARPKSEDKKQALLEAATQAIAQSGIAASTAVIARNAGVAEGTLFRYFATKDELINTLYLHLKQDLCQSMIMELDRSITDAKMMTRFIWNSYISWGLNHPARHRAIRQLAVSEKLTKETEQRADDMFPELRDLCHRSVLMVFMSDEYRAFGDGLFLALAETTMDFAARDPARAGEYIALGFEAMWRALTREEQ

Consider `COc1ccc(C[C@@H]2NCCc3cc(OC)c(O)cc32)cc1O` [norreticuline], for which the “responsiveness of THP4.1” value was “somewhat responsive”.
